Where a name gives a salt, the structure may show the parent alone.
Test system: HCT116
Conditions: 72 h
Procedure, shortened: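 HCT116 cells were plated at 250 per well in 1536-well plates and allowed 5 h to attach. CellTiter-Glo luminescence was normalized to vehicle as 0% and positive control as -100%, followed by pattern correction. Four-parameter Hill fits provided IC50 and maximal efficacy.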

| SMILES | IC50 cell viability (ICRF193 0 nM) | IC50 cell viability (ICRF193 200 nM) |
| --- | --- | --- |
| CN1C(C(=O)Nc2ccccn2)=C(O)c2sccc2S1(=O)=O [Tenoxicam] | > 45.8 µM | > 45.8 µM |
| CC(=O)CC/C=C(\C)CC/C=C(\C)CC/C=C(\C)CCC=C(C)C [Teprenone] | > 45.8 µM | > 45.8 µM |
| COc1cc2nc(N3CCN(C(=O)C4CCCO4)CC3)nc(N)c2cc1OC (configuration not stated) [Terazosin hydrochloride] | > 45.8 µM | > 45.8 µM |
| CN(C/C=C/C#CC(C)(C)C)Cc1cccc2ccccc12 [Terbinafine] | > 45.8 µM | > 45.8 µM |
| CC(C)(C)NCC(O)c1cc(O)cc(O)c1 (configuration not stated) [Terbutaline hemisulfate] | > 45.8 µM | > 45.8 µM |
| CC(C)N1CCN(c2ccc(OCC3COC(Cn4cncn4)(c4ccc(Cl)cc4Cl)O3)cc2)CC1 (configuration not stated) [Terconazole] | > 45.8 µM | > 45.8 µM |
| CC(C)(C)c1ccc(C(O)CCCN2CCC(C(O)(c3ccccc3)c3ccccc3)CC2)cc1 (configuration not stated) [Terfenadine] | > 45.8 µM | > 45.8 µM |
| CCN(CC)C(=O)N[C@H]1C[C@@H]2c3cccc4[nH]cc(c34)C[C@H]2N(C)C1 [Terguride] | > 45.8 µM | > 45.8 µM |
| NCCCC[C@H](NC(=O)[C@@H]1CCCN1C(=O)[C@@H]1CSSC[C@H](NC(=O)CNC(=O)CNC(=O)CN)C(=O)N[C@@H](Cc2ccc(O)cc2)C(=O)N[C@@H](Cc2ccccc2)C(=O)N[C@@H](CCC(N)=O)C(=O)N[C@@H](CC(N)=O)C(=O)N1)C(=O)NCC(N)=O [Terlipressin] | > 45.8 µM | > 45.8 µM |
| CC(CC(c1ccccc1)c1ccccc1)NC(C)(C)C (configuration not stated) [Terodiline hydrochloride] | > 45.8 µM | > 45.8 µM |
| CC1=CCC(O)(C(C)C)CC1 (configuration not stated) [Terpineol] | > 45.8 µM | > 45.8 µM |
| CCO[C@@H](Cc1ccc(OCCc2ccc(OS(C)(=O)=O)cc2)cc1)C(=O)O [Tesaglitazar] | > 45.8 µM | > 45.8 µM |
| C[C@]12CC[C@H]3[C@@H](CCC4=CC(=O)CC[C@@]43C)[C@@H]1CC[C@@H]2OC(=O)CCc1ccccc1 [Testosterone 17-phenylpropionate] | > 45.8 µM | > 45.8 µM |
| CCCCCCCCCCC(=O)O[C@H]1CC[C@H]2[C@@H]3CCC4=CC(=O)CC[C@]4(C)[C@H]3CC[C@]12C [Testosterone (undecanoate)] | > 45.8 µM | > 45.8 µM |
| CCCCCCCCCC(=O)O[C@H]1CC[C@H]2[C@@H]3CCC4=CC(=O)CC[C@]4(C)[C@H]3CC[C@]12C [Testosterone decanoate] | > 45.8 µM | > 45.8 µM |
| CC(C)CCC(=O)O[C@H]1CC[C@H]2[C@@H]3CCC4=CC(=O)CC[C@]4(C)[C@H]3CC[C@]12C [Testosterone isocaproate] | > 45.8 µM | > 45.8 µM |
| CCC(=O)O[C@H]1CC[C@H]2[C@@H]3CCC4=CC(=O)CC[C@]4(C)[C@H]3CC[C@]12C [Testosterone propionate] | > 45.8 µM | > 45.8 µM |
| COc1cc2c(cc1OC)C1CC(=O)C(CC(C)C)CN1CC2 (configuration not stated) [Tetrabenazine Mesylate] | > 45.8 µM | > 45.8 µM |
| COc1cc2c(cc1OC)C1CC(=O)C(CC(C)C)CN1CC2 (configuration not stated) [Tetrabenazine] | > 45.8 µM | > 45.8 µM |
| CCCCNc1ccc(C(=O)OCCN(C)C)cc1 [Tetracaine hydrochloride] | > 45.8 µM | > 45.8 µM |
| CN(C)[C@@H]1C(O)=C(C(N)=O)C(=O)[C@@]2(O)C(O)=C3C(=O)c4c(O)cccc4[C@@](C)(O)[C@H]3C[C@@H]12 [Tetracycline hydrochloride] | > 45.8 µM | > 45.8 µM |

| SMILES | IC50 cell viability (ICRF193 0 nM) | IC50 cell viability (ICRF193 200 nM) |
| --- | --- | --- |
| NCCNCCNCCNCCN [Tetraethylenepentamine] | > 45.8 µM | > 45.8 µM |
| c1ccc2c(c1)CCCC2C1=NCCN1 (configuration not stated) [Tetrahydrozoline HCl] | > 45.8 µM | > 45.8 µM |
| O=C1CCC(N2C(=O)c3ccccc3C2=O)C(=O)N1 (configuration not stated) [Thalidomide] | > 45.8 µM | > 45.8 µM |
| CC1(C)[C@@H]2CC[C@@]1(C)[C@H](OC(=O)CSC#N)C2 [Thanite] | > 45.8 µM | > 45.8 µM |
| CN(C)CCN(Cc1ccsc1)c1ccccn1 [Thenyldiamine] | > 45.8 µM | > 45.8 µM |
| Cn1cnc2c1c(=O)[nH]c(=O)n2C [Theobromine] | > 45.8 µM | > 45.8 µM |
| Cn1c(=O)c2[nH]cnc2n(C)c1=O [Theophyllamine] | > 45.8 µM | > 45.8 µM |
| c1ccc2[nH]c(-c3cscn3)nc2c1 [Thiabendazole] | > 45.8 µM | > 45.8 µM |
| C/C(=C(\CCO)SS/C(CCO)=C(/C)N(C=O)Cc1cnc(C)nc1N)N(C=O)Cc1cnc(C)nc1N [Thiamine disulfide] | > 45.8 µM | > 45.8 µM |
| Cc1ncc(C[n+]2csc(CCO)c2C)c(N)n1 [Thiamine hydrochloride] | > 45.8 µM | > 45.8 µM |
| Cc1ncc(C[n+]2csc(CCOP(=O)(O)OP(=O)(O)O)c2C)c(N)n1 [Thiamine pyrophosphate] | > 45.8 µM | > 45.8 µM |
| CS(=O)(=O)c1ccc([C@H](O)[C@@H](COC(=O)CN)NC(=O)C(Cl)Cl)cc1 [Thiamphenicol glycinate] | > 45.8 µM | > 45.8 µM |
| CS(=O)(=O)c1ccc([C@@H](O)[C@@H](CO)NC(=O)C(Cl)Cl)cc1 [Thiamphenicol] | > 45.8 µM | > 45.8 µM |
| S=P(N1CC1)(N1CC1)N1CC1 [ThioTEPA] | > 45.8 µM | > 45.8 µM |
| N#CSCC(=O)O [Thiocyanoacetic acid sodium salt] | > 45.8 µM | > 45.8 µM |
| COc1ccc(CN(CCN(C)C)c2ncccn2)cc1 [Thonzylamine hydrochloride] | > 45.8 µM | > 45.8 µM |
| Cc1cc(OI)c(C(C)C)cc1-c1cc(C(C)C)c(OI)cc1C [Thymol iodide] | > 45.8 µM | > 45.8 µM |
| Cc1ccc(C(C)C)c(O)c1 [Thymol] | > 45.8 µM | > 45.8 µM |
| Cc1ccsc1C(=CCCN1CCC[C@@H](C(=O)O)C1)c1sccc1C [Tiagabine hydrochloride] | > 45.8 µM | > 45.8 µM |
| C=C[C@]1(C)C[C@@H](OC(=O)CSCCN(CC)CC)[C@]2(C)[C@H](C)CC[C@]3(CCC(=O)[C@H]32)[C@@H](C)[C@@H]1O [Tiamulin] | > 45.8 µM | > 45.8 µM |
| CCN(CC)CCNC(=O)c1cc(S(C)(=O)=O)ccc1OC [Tiapride hydrochloride] | > 45.8 µM | > 45.8 µM |

| SMILES | IC50 cell viability (ICRF193 0 nM) | IC50 cell viability (ICRF193 200 nM) |
| --- | --- | --- |
| CC(C(=O)O)c1ccc(C(=O)c2ccccc2)s1 (configuration not stated) [Tiaprofenic acid] | > 45.8 µM | > 45.8 µM |
| O=C(Cn1c(=O)sc2ccc(Cl)cc21)N1CCN(CCO)CC1 [Tiaramide hydrochloride] | > 45.8 µM | > 45.8 µM |
| C#C[C@]1(O)CC[C@H]2[C@@H]3[C@H](C)CC4=C(CCC(=O)C4)[C@H]3CC[C@@]21C [Tibolone] | > 45.8 µM | > 45.8 µM |
| CC1(C)S[C@@H]2[C@H](NC(=O)[C@H](C(=O)O)c3ccsc3)C(=O)N2[C@H]1C(=O)O [Ticarcillin sodium] | > 45.8 µM | > 45.8 µM |
| Clc1ccccc1CN1CCc2sccc2C1 [Ticlopidine hydrochloride] | > 45.8 µM | > 45.8 µM |
| CN(C)c1cc(NC(=O)CNC(C)(C)C)c(O)c2c1C[C@H]1C[C@H]3[C@H](N(C)C)C(O)=C(C(N)=O)C(=O)[C@@]3(O)C(O)=C1C2=O [Tigecycline] | > 45.8 µM | > 45.8 µM |
| CC[C@H]1OC(=O)C[C@@H](O)[C@H](C)[C@@H](O[C@@H]2O[C@H](C)[C@@H](O)[C@H](N(C)C)[C@H]2O)[C@@H](CCN2CCCCC2)C[C@@H](C)C(=O)/C=C/C(C)=C/[C@@H]1CN1CCCCC1 [Tildipirosin] | > 45.8 µM | > 45.8 µM |
| CCNC1(c2cccs2)CCCCC1=O (configuration not stated) [Tiletamine Hydrochloride] | > 45.8 µM | > 45.8 µM |
| Cc1nc(C2CCCCC2)c(-c2ccc(S(N)(=O)=O)c(F)c2)o1 [Tilmacoxib] | > 45.8 µM | > 45.8 µM |
| O=P(O)(O)C(Sc1ccc(Cl)cc1)P(=O)(O)O [Tiludronate disodium salt hydrate] | > 45.8 µM | > 45.8 µM |
| COC1CC(=C(c2cccs2)c2cccs2)C[N+](C)(C)C1 (configuration not stated) [Timepidium bromide] | > 45.8 µM | > 45.8 µM |
| CCS(=O)(=O)CCn1c([N+](=O)[O-])cnc1C [Tinidazole] | > 45.8 µM | > 45.8 µM |
| CCOC(=O)c1c(N)sc2c1CCN(Cc1ccccc1)C2 [Tinoridine] | > 45.8 µM | > 45.8 µM |
| CC(S)C(=O)NCC(=O)O (configuration not stated) [Tiopronin] | > 45.8 µM | > 45.8 µM |
| C[N+]1(C)[C@@H]2C[C@@H](OC(=O)C(O)(c3cccs3)c3cccs3)C[C@H]1[C@@H]1O[C@@H]12 [Tiotropium (Bromide)] | > 45.8 µM | > 45.8 µM |
| CCCOc1ccc2nc(NC(=O)OC)sc2c1 [Tioxidazole] | > 45.8 µM | > 45.8 µM |
| N=C1CCCN1Cc1[nH]c(=O)[nH]c(=O)c1Cl [Tipiracil] | > 45.8 µM | > 45.8 µM |
| CCC[C@@]1(CCc2ccccc2)CC(O)=C([C@H](CC)c2cccc(NS(=O)(=O)c3ccc(C(F)(F)F)cn3)c2)C(=O)O1 [Tipranavir] | > 45.8 µM | > 45.8 µM |
| C[N+]12CCCCC1CCC(=C(c1cccs1)c1cccs1)C2 (configuration not stated) [Tiquizium bromide] | > 45.8 µM | > 45.8 µM |

— the supplement of paper PMC12137928
